Results: patent US7727753B2, “Plant dihydroorotase” (BASF Aktiengesellschaft, priority 1999, dated 2010)

Test system: potato dihydroorotase
Test: Measurement of the dihydroorotase activity (dihydroorotate-dehydrogenase-coupled photometric assay at 340 nm, or colorimetric assay)
Assay type: biochemical, Solanum tuberosum
Details: activity measured in the assay systems described; recombinant enzyme expressed in E. coli
Text: The enzymatic detection developed to date for measuring the dihydroorotase activity by the method of Mazus and Buchowicz, (Acta Biochimica Polonica (1968), 15(4), 317-325) is based on detecting the orotate formed at 280 nm in a dihydroorotate-dehydrogenase-coupled reaction mixture. Prerequisite for doing so is a high activity of the auxiliary enzyme, viz. dihydroorotate dehydrogenase. […] In order to be able to carry out a mass screening, the specific dihydroorotate dehydrogenase activity must be at least ten times higher than is the case in the commercial preparation. […] The enzyme activity was determined in a photometric assay by measurement in a photometer (Uvikon 933, Kontron) at 340 nm. […] In each case […] of the resulting enzyme fraction was made up with buffer to […] and measured against a reference cell containing […] reaction buffer and 100 ml of a protein homogenate of untransformed E. coli culture. […] Identical quantities of total protein were employed for measuring the untransformed or transformed E. coli extracts. […] Alternatively, the dihydroorotase may also be measured in a less sensitive colorimetric assay by the method of Prescott and Jones (Anal. Biochem. (1969) 32, 408-419) without being coupled to dihydroorotate dehydrogenase. […]

Row | SMILES | potato dihydroorotase activity
1 | O=C1NC(C(=O)O)=CC(C(=O)O)N1 (centres unmarked) [2-oxo-1,2,3,6-tetrahydropyrimidine-4,6-dicarboxylate] | can be reduced
2 | O=C1NC(=S)C[C@@H](C(=O)O)N1 [6-L-thiodihydroorotate] | can be reduced
